Reference: the METLIN SMRT retention time set (Domingo-Almenara et al. 2019)

Assay: gradient 5% acetonitrile 3 min, to 50% in 2 min, to 85% in 15 min, held 3 min, 100 µL/min
Settings: column: Zorbax Extend-C18 2.1 x 50 mm; eluents: water / acetonitrile, 0.1% formic acid
In short: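 The mobile phases were water and acetonitrile, each with 0.1% formic acid, pumped at 100 μL/min through a Zorbax Extend-C18 column (2.1 × 50 mm, 1.8 μm). Pure standards were injected as mixtures of ~100 molecules and detected by a quadrupole time-of-flight mass spectrometer in positive and negative ionization mode. Retention time came from computationally picked adduct peaks, each inspected by hand.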

RP-LC retention time [s] | SMILES
801 | CC(C)Nc1ccc2nnc(C3CCC3)n2n1
774 | Cc1ccc(Nc2c(-c3ccccc3O)nc3ccc(C)cn23)cc1
749 | COc1ccc(OCc2noc(CNC(=O)c3cccnc3)n2)cc1
1020 | COc1ccccc1CCC(=O)N1CCCn2nc(-c3ccc(C)cc3)cc2C1
838 | Cc1nnc(-c2cn(CC(=O)NCc3cccc(Br)c3)c3ccccc23)o1
1040 | O=S(=O)(c1ccccc1)N1CCc2nc(-c3ccc(F)cc3)ncc2C1
728 | COc1ccccc1NC(=O)NCCc1nc2cccnc2n1C1CCCC1
696 | COc1cccc2c(Nc3cccc(C)c3)cc(C(=O)N3CCSCC3)nc12
961 | CC(C)(C)C(=O)Oc1ccc(S(=O)(=O)Nc2ccccc2C(=O)NCC(=O)O)cc1
666 | Cc1cc(=O)n(CC(=O)Nc2ccc3c(c2)OCO3)c(N2CCCCC2)n1
678 | CCC1(O)CCC12CCN(C(=O)C1CC1)CC2 (centres undefined)
1360 | Cc1ccc(-c2noc(-c3cccc(S(=O)(=O)NC4CCCC4)c3)n2)cc1
637 | CCS(=O)(=O)N1CC(CC#N)(n2cc(-c3ncnc4[nH]ccc34)cn2)C1
603 | CC(C)C1c2nccn2CCCN1C(=O)Cn1c(=O)oc2ccccc21 (centres undefined)
751 | Cc1cccc(NC(=O)N2CCC(CC(=O)N3CCCCC3)CC2)c1C
770 | COc1cc(NC(=O)Cn2nc3nc(N4CCCC(C)C4)ccn3c2=O)cc(OC)c1 (centres undefined)
579 | COc1cc(=O)c(C(N)=O)nn1-c1ccc(F)cc1
685 | CCCn1cc(-c2ccncc2)cc1C(=O)NC1CCCCC1
629 | Cn1cnc(S(=O)(=O)N2CCC(Cc3nncn3-c3ccccc3)CC2)c1
868 | COC(=O)Cn1c(=O)c2c(nc3n2CCCN3c2ccc(Cl)cc2)n(C)c1=O
734 | COCCNC(=O)Nc1nc(CSCc2cc(OC)cc(OC)c2)cs1
1260 | CCOc1ccc(-c2cc3c(=O)n(Cc4nc(-c5ccc(OC(C)C)cc5)no4)ncn3n2)cc1

RP-LC retention time [s] | SMILES
627 | O=C(NCCN1CCCC1)c1cc2n(n1)CCCN(Cc1ccc(Cl)cc1)C2=O
829 | O=C(Nc1nc2ccccc2s1)C1CCN(C(=O)c2ccccc2Cl)CC1
740 | Cc1ccc(Cn2c(=O)n(CCNC(=O)C3CC3)c3ncccc32)cc1
587 | CC1CCCCN1CCCNC(=O)C1CCN(c2nc3cccnc3s2)CC1 (centres undefined)
854 | Cc1cccc(NC(=O)N2CCc3c(c(-c4nc(C5CC5)no4)nn3C)C2)c1
1120 | CCc1cccc(NC(=O)C2(C)Oc3cccnc3N(C(C)C)C2=O)c1 (centres undefined)
823 | CN1c2ccc(F)cc2C(=O)NC12CCN(C(=O)c1ccc(F)c(Cl)c1)CC2
797 | CCNC(=O)c1c(-c2cccc(F)c2)noc1C
955 | N#Cc1ccc(C(=O)N2CCN3CCS(=O)(=O)N(C4CC4)C(=O)C3C2)cc1 (centres undefined)
1220 | CCN(C(=O)c1cccs1)c1nc(-c2ccccc2)cs1
781 | Cc1ccc(C)c(-c2csc(NC(=O)CCC(=O)O)n2)c1
736 | CCc1noc(NC(C)=O)c1-c1ccc(OC)c(S(=O)(=O)Nc2ccc3c(c2)OCCO3)c1
818 | Cc1ccccc1S(=O)(=O)N1CCC(c2nc(C(=O)N(C)C)c(C)o2)CC1
678 | COC(=O)C(NC(=O)Nc1cccn2c(C)nnc12)c1ccccc1 (centres undefined)
704 | Cc1ccc(NC(=O)Nc2nc(C(=O)N3CCN(C(=O)c4ccco4)CC3)cs2)cc1
710 | COCc1nc2cccnc2n1C1CCN(C(=O)Nc2cc(C)ccc2C)CC1
747 | Cc1ccc(N2CCN(C(=O)C3CCCN(c4nccc5sc(C)cc45)C3)CC2)cc1 (centres undefined)
943 | COc1ccc(-c2nc3c(s2)CN(C(=O)Nc2ccccc2OC)CC3)cc1
759 | CCOc1cc(C(=O)Nc2c(-c3ccccc3)nc3ccccn23)cc(OCC)c1OCC
648 | CCOC(=O)CNC(=O)NCCc1nc2cccnc2n1Cc1ccccc1
1260 | CCC(C)(C)c1ccc(Oc2cccc(C(=O)O)c2)cc1
706 | COCCN1C(=O)CCc2cc(NS(=O)(=O)c3cccs3)ccc21

RP-LC retention time [s] | SMILES
948 | CCN1C(=O)SC(CC(=O)O)C1=O (centres undefined)
974 | CCOC(=O)C1CCN(C(=O)CCCn2c(=O)c3cccn3c3ccc(Br)cc32)CC1
712 | CCCC(NC(=O)c1ccc(F)c(F)c1)C(=O)Nc1nc2ccccc2[nH]1 (centres undefined)
724 | COc1ccc(N2CC(c3nc(-c4ccccn4)no3)CC2=O)cc1Cl (centres undefined)
774 | CCc1nnc(-c2cc(NC(=O)c3ccnn3C)c(C)s2)o1
1010 | COCCn1cc(C(=O)NC2CCCCCC2)c2nn(-c3ccccc3)c(=O)c-2c1
876 | O=C(NCc1ccccc1F)c1ccc(Cn2c(C(F)(F)F)nc3cccnc32)cc1
580 | CC(Sc1nnnn1-c1ccccc1)C(=O)Nc1ccc(N2CCN(C)CC2)cc1 (centres undefined)
688 | Cc1cc(C)cc(C(=O)NC(C)C(=O)Nc2nc3ccccc3[nH]2)c1 (centres undefined)
706 | CCOCCCNC(=O)c1ccc2c(c1)CCCN2S(C)(=O)=O
602 | Cc1nc(Nc2ccc(F)cn2)sc1C(=O)N1CCN(c2ccccn2)CC1
831 | Cc1csc(-c2cc(S(=O)(=O)NCC3CCCO3)cn2CC(=O)N2CCCCC2)n1 (centres undefined)
712 | COc1cccc(CNC(=O)N2CCC(n3c(-c4ccco4)nc4cccnc43)C2)c1 (centres undefined)
803 | COCCN1C(=O)CCc2cc(NS(=O)(=O)c3cc(Cl)ccc3OC)ccc21
609 | CCNC(=O)c1ccc2c(c1)CCN2C(C)=O
790 | Cc1ccc(NC(=O)N2CCC(n3cnc4ccc(F)cc4c3=O)CC2)c(C)c1
838 | COc1cc(NC(=O)Nc2cccc(CNC(=O)O[C@H]3CCOC3)c2)ccc1-c1cnco1
601 | CC(C)CNC(=O)Cn1c(C(C)C)nc2ccccc21
581 | CCCNC(=O)C1Cn2cccc2C(=O)N1 (centres undefined)
739 | Cc1ccc(CNS(=O)(=O)c2cc3n(c2)CCCNC3=O)cc1C
1010 | CSc1ccc(NC(=O)N2CCN(c3ccc(C(F)(F)F)cn3)CC2)cc1
826 | CC(=O)c1cccc(NC(=O)c2cn(C)cc3c(=O)n(-c4ccccc4)nc2-3)c1

SMILES | RP-LC retention time [s]
COCCN1C(=O)CS(=O)(=O)C12CCN(C(=O)C1(c3ccc(OC)cc3)CC1)CC2 | 661
CCc1nnc(-c2ccc3ccn(CC(=O)N4CCC5(CC4)OCCO5)c3c2)o1 | 722
COc1ccc2c(c1)C1(CCN(C(=O)Nc3ccccc3)C1)C(=O)N2 (centres undefined) | 694
